Columns and labels:
[1] = molecular target: Serine/threonine-protein kinase 17A (Homo sapiens) (UniProt Q9UEE5); conditions: Compound concentration 1000.0 nM
[2] = molecular target: Cyclin-dependent kinase 13 (Homo sapiens) (UniProt Q14004); conditions: Compound concentration 1000.0 nM
[3] = system: Tyrosine-protein kinase ABL1 (Homo sapiens), P00519 [Q252H]; conditions: Compound concentration 1000.0 nM
[4] = molecular target: Serine/threonine-protein kinase Nek11 (Homo sapiens) (UniProt Q8NG66); conditions: Compound concentration 1000.0 nM
[5] = molecular target: Serine/threonine-protein kinase Nek1 (Homo sapiens) (UniProt Q96PY6); conditions: Compound concentration 1000.0 nM
[6] = molecular target: Mitogen-activated protein kinase 15 (Homo sapiens) (UniProt Q8TD08); conditions: Compound concentration 1000.0 nM
[7] = molecular target: Receptor-interacting serine/threonine-protein kinase 2 (Homo sapiens) (UniProt O43353); conditions: Compound concentration 1000.0 nM
[8] = system: Receptor-type tyrosine-protein kinase FLT3 (Homo sapiens), P36888 [K663Q]; conditions: Compound concentration 1000.0 nM
[9] = system: Proto-oncogene tyrosine-protein kinase receptor Ret (Homo sapiens), P07949 [V804L]; conditions: Compound concentration 1000.0 nM
[10] = molecular target: Tyrosine-protein kinase Fyn (Homo sapiens) (UniProt P06241); conditions: Compound concentration 1000.0 nM
[11] = molecular target: Non-receptor tyrosine-protein kinase TNK1 (Homo sapiens) (UniProt Q13470); conditions: Compound concentration 1000.0 nM
[12] = molecular target: Interferon-induced, double-stranded RNA-activated protein kinase (Homo sapiens) (UniProt P19525); conditions: Compound concentration 1000.0 nM
[13] = molecular target: Activin receptor type-2B (Homo sapiens) (UniProt Q13705); conditions: Compound concentration 1000.0 nM
[14] = molecular target: Ribosomal protein S6 kinase alpha-6 (Homo sapiens) (UniProt Q9UK32); conditions: Compound concentration 1000.0 nM
[15] = molecular target: Activin receptor type-1 (Homo sapiens) (UniProt Q04771); conditions: Compound concentration 1000.0 nM
[16] = molecular target: Serine/threonine-protein kinase Sgk2 (Homo sapiens) (UniProt Q9HBY8); conditions: Compound concentration 1000.0 nM
[17] = molecular target: Platelet-derived growth factor receptor beta (Homo sapiens) (UniProt P09619); conditions: Compound concentration 1000.0 nM
[18] = system: Phosphatidylinositol 4,5-bisphosphate 3-kinase catalytic subunit alpha isoform (Homo sapiens), P42336 [E542K]; conditions: Compound concentration 1000.0 nM
[19] = molecular target: T1, Muscarinic acetylcholine receptor M5 (Homo sapiens) (UniProt P08912); conditions: Compound concentration 10.0 uM
T1 sequence (whole entry): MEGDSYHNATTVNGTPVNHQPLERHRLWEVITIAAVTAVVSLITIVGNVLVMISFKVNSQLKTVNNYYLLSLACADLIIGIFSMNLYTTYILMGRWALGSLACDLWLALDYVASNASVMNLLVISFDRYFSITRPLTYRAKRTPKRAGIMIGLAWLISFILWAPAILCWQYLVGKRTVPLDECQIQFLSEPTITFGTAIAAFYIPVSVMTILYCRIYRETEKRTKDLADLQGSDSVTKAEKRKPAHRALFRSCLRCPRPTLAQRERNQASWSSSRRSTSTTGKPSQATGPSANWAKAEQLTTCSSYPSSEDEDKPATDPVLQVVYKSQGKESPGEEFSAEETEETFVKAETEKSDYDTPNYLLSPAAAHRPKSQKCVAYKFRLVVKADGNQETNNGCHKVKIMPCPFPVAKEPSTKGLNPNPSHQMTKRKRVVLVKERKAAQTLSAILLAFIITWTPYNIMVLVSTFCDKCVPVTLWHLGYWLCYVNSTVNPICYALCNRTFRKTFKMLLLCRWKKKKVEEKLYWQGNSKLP

[20] = molecular target: Mitogen-activated protein kinase kinase kinase 19 (Homo sapiens) (UniProt Q56UN5); conditions: Compound concentration 1000.0 nM
[21] = molecular target: Cyclin-dependent kinase 8 (Homo sapiens) (UniProt P49336); conditions: Compound concentration 1000.0 nM
[22] = molecular target: Histamine H3 receptor (Homo sapiens) (UniProt Q9Y5N1); conditions: Compound concentration 10.0 uM
[23] = molecular target: Alpha-1B adrenergic receptor (Homo sapiens) (UniProt P35368); conditions: Compound concentration 10.0 uM
[24] = molecular target: Testis-specific serine/threonine-protein kinase 3 (Homo sapiens) (UniProt Q96PN8); conditions: Compound concentration 1000.0 nM
[25] = molecular target: G protein-coupled receptor kinase 4 (Homo sapiens) (UniProt P32298); conditions: Compound concentration 1000.0 nM
[26] = molecular target: Phosphatidylinositol 4,5-bisphosphate 3-kinase catalytic subunit alpha isoform (Homo sapiens) (UniProt P42336); conditions: Compound concentration 1000.0 nM
[27] = molecular target: Receptor tyrosine-protein kinase erbB-4 (Homo sapiens) (UniProt Q15303); conditions: Compound concentration 1000.0 nM
[28] = molecular target: Cyclin-G-associated kinase (Homo sapiens) (UniProt O14976); conditions: Compound concentration 1000.0 nM
[29] = molecular target: Discoidin domain-containing receptor 2 (Homo sapiens) (UniProt Q16832); conditions: Compound concentration 1000.0 nM
[30] = molecular target: Mitogen-activated protein kinase kinase kinase 6 (Homo sapiens) (UniProt O95382); conditions: Compound concentration 1000.0 nM
[31] = system: Phosphatidylinositol 4,5-bisphosphate 3-kinase catalytic subunit alpha isoform (Homo sapiens), P42336 [H1047L]; conditions: Compound concentration 1000.0 nM
[32] = molecular target: Tyrosine-protein kinase JAK2 (Homo sapiens) (UniProt O60674); conditions: Compound concentration 1000.0 nM
[33] = molecular target: Casein kinase I isoform gamma-2 (Homo sapiens) (UniProt P78368); conditions: Compound concentration 1000.0 nM
[34] = molecular target: Serine/threonine-protein kinase 32B (Homo sapiens) (UniProt Q9NY57); conditions: Compound concentration 1000.0 nM
[35] = molecular target: Dual specificity mitogen-activated protein kinase kinase 5 (Homo sapiens) (UniProt Q13163); conditions: Compound concentration 1000.0 nM
[36] = system: Epidermal growth factor receptor (Homo sapiens), P00533 [G719S]; conditions: Compound concentration 1000.0 nM
[37] = molecular target: Insulin-like growth factor 1 receptor (Homo sapiens) (UniProt P08069); conditions: Compound concentration 1000.0 nM
[38] = molecular target: Ephrin type-B receptor 6 (Homo sapiens) (UniProt O15197); conditions: Compound concentration 1000.0 nM

Chain of Activin receptor type-1 (Homo sapiens) (Q04771 whole entry): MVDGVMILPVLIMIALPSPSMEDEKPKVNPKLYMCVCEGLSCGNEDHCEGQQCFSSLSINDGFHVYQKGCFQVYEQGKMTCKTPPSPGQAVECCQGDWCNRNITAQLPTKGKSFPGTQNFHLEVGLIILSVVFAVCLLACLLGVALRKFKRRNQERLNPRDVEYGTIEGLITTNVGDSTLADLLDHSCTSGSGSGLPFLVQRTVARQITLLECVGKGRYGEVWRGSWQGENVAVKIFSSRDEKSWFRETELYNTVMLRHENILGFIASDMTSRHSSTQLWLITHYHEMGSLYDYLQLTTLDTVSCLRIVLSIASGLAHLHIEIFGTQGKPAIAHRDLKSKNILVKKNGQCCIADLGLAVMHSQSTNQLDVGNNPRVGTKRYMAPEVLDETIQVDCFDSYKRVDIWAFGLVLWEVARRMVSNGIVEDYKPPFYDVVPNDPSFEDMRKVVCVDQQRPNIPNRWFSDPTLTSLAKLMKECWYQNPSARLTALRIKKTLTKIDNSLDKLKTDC
Chain of G protein-coupled receptor kinase 4 (Homo sapiens) (P32298 whole entry, looked up, canonical isoform): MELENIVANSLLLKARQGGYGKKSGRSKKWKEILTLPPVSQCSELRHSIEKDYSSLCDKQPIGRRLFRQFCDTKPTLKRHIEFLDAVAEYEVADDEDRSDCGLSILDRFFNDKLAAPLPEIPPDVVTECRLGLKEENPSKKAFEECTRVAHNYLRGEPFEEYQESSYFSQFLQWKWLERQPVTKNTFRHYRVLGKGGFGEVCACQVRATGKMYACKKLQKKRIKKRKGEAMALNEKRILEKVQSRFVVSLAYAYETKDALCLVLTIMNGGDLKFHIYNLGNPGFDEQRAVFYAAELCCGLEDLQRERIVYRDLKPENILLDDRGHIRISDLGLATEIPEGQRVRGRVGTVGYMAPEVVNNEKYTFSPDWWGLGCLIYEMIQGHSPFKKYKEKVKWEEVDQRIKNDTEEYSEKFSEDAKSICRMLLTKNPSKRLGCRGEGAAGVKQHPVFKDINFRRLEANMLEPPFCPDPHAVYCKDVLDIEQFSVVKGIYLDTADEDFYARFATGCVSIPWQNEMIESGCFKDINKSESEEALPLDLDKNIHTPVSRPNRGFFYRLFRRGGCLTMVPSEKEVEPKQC
Chain of Histamine H3 receptor (Homo sapiens) (Q9Y5N1 whole entry): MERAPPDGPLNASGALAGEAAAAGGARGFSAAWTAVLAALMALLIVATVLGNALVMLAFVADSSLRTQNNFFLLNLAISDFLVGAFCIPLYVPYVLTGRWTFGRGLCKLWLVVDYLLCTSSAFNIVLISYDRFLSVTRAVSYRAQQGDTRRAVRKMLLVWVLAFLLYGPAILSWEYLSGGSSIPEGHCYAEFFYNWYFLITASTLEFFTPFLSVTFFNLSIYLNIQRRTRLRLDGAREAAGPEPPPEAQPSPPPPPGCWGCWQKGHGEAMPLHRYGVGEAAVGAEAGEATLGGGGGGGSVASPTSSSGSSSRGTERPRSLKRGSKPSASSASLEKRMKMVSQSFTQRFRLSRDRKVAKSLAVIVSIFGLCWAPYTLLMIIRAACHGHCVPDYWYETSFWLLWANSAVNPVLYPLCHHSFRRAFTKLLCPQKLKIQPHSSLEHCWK
Chain of Serine/threonine-protein kinase Nek1 (Homo sapiens) (Q96PY6 whole entry): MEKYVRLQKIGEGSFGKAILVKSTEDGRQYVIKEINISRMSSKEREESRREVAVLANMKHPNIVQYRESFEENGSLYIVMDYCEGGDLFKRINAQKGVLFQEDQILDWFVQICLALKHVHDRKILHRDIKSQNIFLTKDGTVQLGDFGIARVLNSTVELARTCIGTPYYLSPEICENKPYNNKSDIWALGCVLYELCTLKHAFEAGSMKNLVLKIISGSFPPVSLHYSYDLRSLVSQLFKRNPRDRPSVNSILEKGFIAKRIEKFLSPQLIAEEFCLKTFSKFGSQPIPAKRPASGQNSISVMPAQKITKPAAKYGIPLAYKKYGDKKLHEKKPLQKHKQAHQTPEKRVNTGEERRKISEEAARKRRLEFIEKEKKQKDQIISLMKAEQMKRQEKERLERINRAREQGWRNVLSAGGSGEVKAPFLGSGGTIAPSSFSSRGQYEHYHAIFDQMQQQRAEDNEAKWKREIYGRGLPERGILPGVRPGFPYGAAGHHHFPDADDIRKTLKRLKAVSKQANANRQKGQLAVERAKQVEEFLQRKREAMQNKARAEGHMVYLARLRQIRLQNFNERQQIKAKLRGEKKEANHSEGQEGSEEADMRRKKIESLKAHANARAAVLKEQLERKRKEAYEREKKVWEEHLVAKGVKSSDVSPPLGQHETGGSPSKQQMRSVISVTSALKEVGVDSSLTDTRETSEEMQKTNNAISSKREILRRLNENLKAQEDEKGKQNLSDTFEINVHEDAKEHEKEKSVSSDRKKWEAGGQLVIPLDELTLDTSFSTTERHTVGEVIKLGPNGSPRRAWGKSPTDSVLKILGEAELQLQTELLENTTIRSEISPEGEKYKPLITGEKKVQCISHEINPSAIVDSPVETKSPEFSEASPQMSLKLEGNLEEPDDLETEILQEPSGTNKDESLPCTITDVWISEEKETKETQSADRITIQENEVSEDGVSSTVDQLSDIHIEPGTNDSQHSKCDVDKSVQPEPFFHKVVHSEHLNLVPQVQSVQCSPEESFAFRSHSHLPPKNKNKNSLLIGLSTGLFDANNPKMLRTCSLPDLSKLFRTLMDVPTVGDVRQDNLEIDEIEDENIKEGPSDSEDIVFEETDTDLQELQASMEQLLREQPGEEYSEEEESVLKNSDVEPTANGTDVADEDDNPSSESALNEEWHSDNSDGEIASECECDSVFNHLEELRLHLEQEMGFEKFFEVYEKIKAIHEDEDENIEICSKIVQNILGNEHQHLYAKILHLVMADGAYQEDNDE
Chain of Non-receptor tyrosine-protein kinase TNK1 (Homo sapiens) (Q13470 whole entry): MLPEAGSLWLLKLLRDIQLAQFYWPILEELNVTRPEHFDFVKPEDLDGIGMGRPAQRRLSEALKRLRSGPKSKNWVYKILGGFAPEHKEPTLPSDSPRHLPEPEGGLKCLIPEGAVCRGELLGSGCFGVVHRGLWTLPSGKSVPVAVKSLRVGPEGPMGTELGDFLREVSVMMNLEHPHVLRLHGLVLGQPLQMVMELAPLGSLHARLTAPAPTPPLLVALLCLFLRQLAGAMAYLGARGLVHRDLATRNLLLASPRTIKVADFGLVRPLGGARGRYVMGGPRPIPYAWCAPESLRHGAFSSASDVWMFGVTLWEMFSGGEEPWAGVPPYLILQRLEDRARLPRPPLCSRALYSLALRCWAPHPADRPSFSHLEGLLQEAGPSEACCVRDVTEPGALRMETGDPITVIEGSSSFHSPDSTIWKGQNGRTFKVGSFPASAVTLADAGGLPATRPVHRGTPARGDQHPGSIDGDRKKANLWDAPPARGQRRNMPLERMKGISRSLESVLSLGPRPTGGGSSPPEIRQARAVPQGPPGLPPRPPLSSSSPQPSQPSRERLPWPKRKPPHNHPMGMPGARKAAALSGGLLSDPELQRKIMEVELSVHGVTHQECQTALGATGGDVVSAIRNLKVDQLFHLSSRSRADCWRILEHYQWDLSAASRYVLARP
Chain of Phosphatidylinositol 4,5-bisphosphate 3-kinase catalytic subunit alpha isoform (Homo sapiens), P42336 [E542K] (P42336 whole entry E542K, canonical isoform): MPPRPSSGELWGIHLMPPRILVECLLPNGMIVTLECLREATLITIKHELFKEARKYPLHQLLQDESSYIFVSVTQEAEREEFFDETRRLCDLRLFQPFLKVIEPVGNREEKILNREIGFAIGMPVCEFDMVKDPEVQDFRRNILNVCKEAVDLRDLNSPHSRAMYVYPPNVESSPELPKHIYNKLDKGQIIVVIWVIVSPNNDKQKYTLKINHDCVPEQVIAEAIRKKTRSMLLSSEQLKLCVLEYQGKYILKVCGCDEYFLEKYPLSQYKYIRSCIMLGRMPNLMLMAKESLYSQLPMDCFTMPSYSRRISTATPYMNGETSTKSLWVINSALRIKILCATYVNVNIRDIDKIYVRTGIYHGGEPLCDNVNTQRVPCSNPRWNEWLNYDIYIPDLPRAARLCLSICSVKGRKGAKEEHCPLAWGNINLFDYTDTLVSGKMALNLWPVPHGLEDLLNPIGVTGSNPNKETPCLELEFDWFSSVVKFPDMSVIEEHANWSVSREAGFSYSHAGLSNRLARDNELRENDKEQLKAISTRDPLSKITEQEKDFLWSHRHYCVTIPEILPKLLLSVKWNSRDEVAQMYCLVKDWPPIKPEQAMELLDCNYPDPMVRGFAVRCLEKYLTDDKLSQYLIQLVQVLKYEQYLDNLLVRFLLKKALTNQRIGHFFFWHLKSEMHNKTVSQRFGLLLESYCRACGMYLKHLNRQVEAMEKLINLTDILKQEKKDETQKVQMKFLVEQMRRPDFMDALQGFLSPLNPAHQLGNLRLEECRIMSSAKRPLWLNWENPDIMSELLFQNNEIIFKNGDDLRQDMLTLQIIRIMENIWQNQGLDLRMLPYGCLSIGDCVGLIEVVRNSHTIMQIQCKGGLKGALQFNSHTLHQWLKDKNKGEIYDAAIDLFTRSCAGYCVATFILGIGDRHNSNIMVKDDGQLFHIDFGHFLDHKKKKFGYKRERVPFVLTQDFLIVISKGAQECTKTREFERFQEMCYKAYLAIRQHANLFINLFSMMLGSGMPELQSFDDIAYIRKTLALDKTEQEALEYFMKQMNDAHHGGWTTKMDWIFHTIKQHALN
Chain of Testis-specific serine/threonine-protein kinase 3 (Homo sapiens) (Q96PN8 whole entry): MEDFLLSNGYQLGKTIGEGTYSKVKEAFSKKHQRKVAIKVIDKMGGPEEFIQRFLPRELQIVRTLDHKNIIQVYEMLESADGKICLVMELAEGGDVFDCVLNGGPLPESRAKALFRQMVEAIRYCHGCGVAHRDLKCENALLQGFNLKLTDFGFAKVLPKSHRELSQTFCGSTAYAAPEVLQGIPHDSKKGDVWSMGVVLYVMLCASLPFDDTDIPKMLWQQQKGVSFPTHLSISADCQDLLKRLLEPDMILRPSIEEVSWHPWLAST

**Q.** Which residual activity [1] does the source give for `N#CC1(c2ccccn2)CCN(Cc2cc(C(=O)N3CCCC3)c(=O)n3ccccc23)CC1` here?
**A.** 96%

**Q.** And the residual activity [2]?
**A.** 100%

**Q.** What about the residual activity [3] of the same compound?
**A.** 97%

**Q.** What about the residual activity [4] of the same compound?
**A.** 63%

**Q.** What about the residual activity [5] of the same compound?
**A.** 91%

**Q.** What about the residual activity [6] of the same compound?
**A.** 92%

**Q.** And the residual activity [7]?
**A.** 83%

**Q.** And the residual activity [8]?
**A.** 30%

**Q.** And the residual activity [9]?
**A.** 92%

**Q.** And the residual activity [10]?
**A.** 83%

**Q.** What about the residual activity [11] of the same compound?
**A.** 72%

**Q.** And the residual activity [12]?
**A.** 100%

**Q.** And the residual activity [13]?
**A.** 75%

**Q.** And the residual activity [14]?
**A.** 89%

**Q.** What about the residual activity [15] of the same compound?
**A.** 83%

**Q.** What about the residual activity [16] of the same compound?
**A.** 100%

**Q.** And the residual activity [17]?
**A.** 86%

**Q.** What about the residual activity [18] of the same compound?
**A.** 90%

**Q.** And the inhibition [19]?
**A.** 0.56%

**Q.** What about the residual activity [20] of the same compound?
**A.** 100%

**Q.** And the residual activity [21]?
**A.** 100%

**Q.** And the inhibition [22]?
**A.** 11.2%

**Q.** And the inhibition [23]?
**A.** 1.36%

**Q.** And the residual activity [24]?
**A.** 100%

**Q.** And the residual activity [25]?
**A.** 86%

**Q.** And the residual activity [26]?
**A.** 80%

**Q.** What about the residual activity [27] of the same compound?
**A.** 85%

**Q.** What about the residual activity [28] of the same compound?
**A.** 100%

**Q.** What about the residual activity [29] of the same compound?
**A.** 100%

**Q.** What about the residual activity [30] of the same compound?
**A.** 100%

**Q.** And the residual activity [31]?
**A.** 100%

**Q.** And the residual activity [32]?
**A.** 85%

**Q.** And the residual activity [33]?
**A.** 76%

**Q.** And the residual activity [34]?
**A.** 100%

**Q.** What about the residual activity [35] of the same compound?
**A.** 100%

**Q.** What about the residual activity [36] of the same compound?
**A.** 100%

**Q.** What about the residual activity [37] of the same compound?
**A.** 88%

**Q.** And the residual activity [38]?
**A.** 100%

**Q.** Which residual activity [1] does the source give for `N#CC1(c2ccccn2)CCN(Cc2cc(C(=O)O)c(=O)n3ccccc23)CC1` [MSD-M1PAM] here?
**A.** 100%

**Q.** What about the residual activity [2] of the same compound?
**A.** 98%

**Q.** And the residual activity [3]?
**A.** 89%

**Q.** What about the residual activity [4] of the same compound?
**A.** 89%

**Q.** What about the residual activity [5] of the same compound?
**A.** 100%

**Q.** And the residual activity [6]?
**A.** 100%

**Q.** And the residual activity [7]?
**A.** 92%

**Q.** And the residual activity [8]?
**A.** 100%

**Q.** And the residual activity [9]?
**A.** 100%

**Q.** What about the residual activity [10] of the same compound?
**A.** 99%

**Q.** What about the residual activity [11] of the same compound?
**A.** 93%

**Q.** What about the residual activity [12] of the same compound?
**A.** 95%

**Q.** And the residual activity [13]?
**A.** 97%

**Q.** And the residual activity [14]?
**A.** 84%

**Q.** And the residual activity [15]?
**A.** 96%

**Q.** And the residual activity [16]?
**A.** 86%

**Q.** What about the residual activity [17] of the same compound?
**A.** 100%

**Q.** And the residual activity [18]?
**A.** 87%

**Q.** And the inhibition [19]?
**A.** 4.74%

**Q.** And the residual activity [20]?
**A.** 77%

**Q.** And the residual activity [21]?
**A.** 100%

**Q.** What about the inhibition [22] of the same compound?
**A.** 4.08%

**Q.** What about the inhibition [23] of the same compound?
**A.** 6.68%

**Q.** What about the residual activity [24] of the same compound?
**A.** 100%

**Q.** And the residual activity [25]?
**A.** 68%

**Q.** And the residual activity [26]?
**A.** 100%

**Q.** What about the residual activity [27] of the same compound?
**A.** 72%

**Q.** And the residual activity [28]?
**A.** 100%

**Q.** And the residual activity [29]?
**A.** 100%

**Q.** What about the residual activity [30] of the same compound?
**A.** 100%

**Q.** What about the residual activity [31] of the same compound?
**A.** 80%

**Q.** And the residual activity [32]?
**A.** 96%

**Q.** What about the residual activity [33] of the same compound?
**A.** 91%

**Q.** And the residual activity [34]?
**A.** 100%

**Q.** And the residual activity [35]?
**A.** 62%

**Q.** What about the residual activity [36] of the same compound?
**A.** 90%

**Q.** What about the residual activity [37] of the same compound?
**A.** 89%

**Q.** What about the residual activity [38] of the same compound?
**A.** 73%

— ChEMBL document CHEMBL4507295 (2021)
